Experimental data published in patent US8236984B2, “Compound and use thereof in the treatment of amyloidosis” (Pentraxin Therapeutics Ltd., priority 2007, dated 2012).

Assays:
wild type transthyretin [1] = molecular target: T1, wild type transthyretin (Homo sapiens, UniProt P02766); assay: Inhibition of transthyretin aggregation at acidic pH (turbidity at 400 nm); assay type: biochemical; parameters: isolated from pooled normal human plasma, was obtained from Scipac; purchased Scipac Ltd, Sittingbourne, Kent, UK; host or cells: pooled normal human plasma; details: wild type 3.6 μM, pH 4.4, 3 d 37° C.; for Aggregation of transthyretin, Mean (1:1): ligand 3.6 μM; for Aggregation of transthyretin, Mean (3:1): ligand 10.8 μM
Experimental: 3.3.1 Wild type transthyretin. The purified wild type transthyretin (liquid and lyophilised) used in these experiments, isolated from pooled normal human plasma, was obtained from Scipac, (Sittingbourne, Kent, UK). Protein concentration was determined by absorbance at 280 nm after correction for light scattering at 320 nm using the absorption coefficient E1 cm^1%=14.0. […] Nano electrospray ionisation mass spectrometry confirmed the presence of normal and cysteinylated transthyretin monomers (Terazaki et al, 1998) under denaturing conditions, and solvent-bound transthyretin tetramer (Nettleton et al, 1998) under mild desolvation conditions.
(§1) 3.3.2 Inhibition of transthyretin aggregation by 4ajm15: In pilot experiments, transthyretin aggregates were formed from wild type transthyretin (3.6 μM) after incubation at acidic pH for 3 d at 37° C. (Colon and Kelly, 1992). The efficacy of 4ajm15 as an inhibitor of transthyretin aggregate formation was then compared with other transthyretin ligand compounds. […] After 30 min at 37° C., the pH was adjusted to pH 4.4 (with 0.2 M sodium acetate buffer pH 4.0), and the ˜1 ml mixtures were incubated unstirred for 3 d at 37° C.
(§2) Using the same method the activities of mds84 and 4ajm15 as inhibitors of the aggregation of both wild type transthyretin and the most aggressively aggregating transthyretin variant, L55P, were evaluated in triplicate with both proteins at 3.6 μM and with one (3.6 μM) or 3 equivalents (10.8 μM) of each ligand. Wild type transthyretin was studied at pH 4.4 and L55P at pH 5.0. […] Mean values and standard deviations are shown in Table 2 and in FIG. 4, where results with 1:1 molar ratio are shown cross hatched and 3:1 molar ratio in open bars.

[2] = molecular target: T2, L55P variant transthyretin (Homo sapiens, UniProt P02766, L75P); assay: as above; assay type: biochemical; details: L55P 3.6 μM, pH 5.0; for Aggregation of transthyretin, Mean (1:1): ligand 3.6 μM; for Aggregation of transthyretin, Mean (3:1): ligand 10.8 μM
Experimental: as §1, §2

transthyretin = molecular target: T3, transthyretin (Homo sapiens, UniProt P02766); assay: Intrinsic fluorescence quenching of transthyretin by ligand titration; assay type: binding; details: 1 μM transthyretin, PBS pH 7.4, ligand 0-2 μM, excitation 280 nm, 20° C.
T3 construct: Native tetrameric transthyretin was purified from fractionated human plasma; from tissue; host or cells: human plasma
Experimental: 3.2.1. Binding of 4ajm15 and mds84 by transthyretin. The interactions between the ligands 4ajm15 or mds84 and transthyretin were studied by monitoring intrinsic fluorescence in the emission range 300-500 nm on excitation at 280 nm using a Perkin Elmer LS55 fluorimeter and a standard 1 cm path length quartz cell at 20° C. Quenching of tryptophan was achieved by titrating 1 μM transthyretin in PBS, pH 7.4 with increasing concentrations of each ligand in the range 0-2 μM (FIG. 2A). […] At the same time the changes in 4ajm15 fluorescence upon binding to the protein were monitored in the emission range 400-600 nm and excitation at 340 nm that is the wavelength specific for 4ajm15 excitation. In these conditions, accumulation of the spectra highlights an isosbestic point at 483 nm (FIG. 2B). The same results were achieved by using mds84 (not shown). The results of the titration of 4ajm15 in presence and absence of transthyretin support a model of binding in which both the binding sites are simultaneously occupied by the palindromic ligand.
In each case increasing concentrations of ligand (0-2 μM) were added to 1 μM protein. The arrow in FIG. 2B indicates the isosbestic point at 483 nm occurring on formation of the protein ligand complex. […] The percent quenching represents ΔF/F0 where F0 is fluorescence intensity prior to the addition of ligands and AF is the decrease in fluorescence at a given ligand concentration.

wild type transthyretin [3] = molecular target: T1, wild type transthyretin; assay: Differential scanning calorimetry of transthyretin with ligand; assay type: binding; parameters: isolated from pooled normal human plasma, was obtained from Scipac; purchased Scipac Ltd, Sittingbourne, Kent, UK; host or cells: pooled normal human plasma; details: five fold molar excess of ligand
[4] = molecular target: T2, L55P variant transthyretin; assay: as above; assay type: binding; details: five fold molar excess of ligand
[5] = molecular target: T2, L55P variant transthyretin; assay: Mass spectrometric analysis of subunit exchange; assay type: biochemical; parameters: made in house; details: L55P variant, decreasing molar ratios of ligand
Experimental: 4.2 Mass spectrometric analysis of subunit exchange. Recombinant wild type, L55P and V30M transthyretin variants were biosynthetically labelled with isotopes [^15N] and [^15N, ^13C] as previously described (Keetch C A et al, 2005). Immediately prior to analysis, proteins were buffer exchanged into 20 mM ammonium acetate, pH 7.0 using Micro Biospin columns (Bio-Rad, UK). The subunit composition of transthyretin was monitored as a function of time by incubating an equimolar solution (4.4 μM) of [^15N] and [^15N, ^13C] labelled proteins in the presence of 2-fold molar excess of 4ajm15 in DMSO or 2.5% DMSO alone as a control. Each experiment was carried out in triplicate at room temperature and at 4° C. as well, since it is known that subunit exchange is accelerated at low temperatures. Nanoflow ESMS was performed on a QToF2 instrument (Waters/Micromass UK, Ltd.) modified for high mass operation (Sobott et al, (2002)) and calibrated externally using caesium iodide (100 mg/ml). Each solution, 1.5 μl, was electrosprayed from gold coated borosilicate capillaries prepared in-house as described (Nettleton E J, et al, 1998). To preserve the non-covalent interactions in the transthyretin tetramer, the MS parameters applied were: capillary voltage 1.6 kV, sample cone 160 V, extractor cone 20 V, ion transfer stage pressure 7.0×10 ^−3 mbar, quadrupole analyzer pressure 9.5×10^−4 mbar and ToF analyzer pressure 1.7×10^−6 mbar. Data were processed with MassLynx software (Waters/Micromass UK, Ltd.) and are presented with minimal smoothing and without background subtraction.
This most unstable transthyretin variant rapidly undergoes spontaneous and extensive subunit exchange, as illustrated in FIG. 8. FIGS. 9-11 show the effects of decreasing molar ratios of mds84 on inhibition of subunit exchange. […] At lower molar ratios of mds84 some exchange takes place but the transthyretin molecules which bind mds84 are still completely stabilized.

Row | SMILES | Aggregation of transthyretin, Mean (1:1) (wild type transthyretin [1]) | Aggregation of transthyretin, Mean (3:1) (wild type transthyretin [1]) | Aggregation of transthyretin, Mean (1:1) [2] | Aggregation of transthyretin, Mean (3:1) [2] | intrinsic fluorescence of transthyretin remaining after titration (transthyretin) [%] | Tm of wild type transthyretin with the ligand (wild type transthyretin [3]) [°C] | increase in Tm of wild type transthyretin (wild type transthyretin [3]) [°C] | Tm of L55P variant transthyretin with the ligand [4] [°C] | increase in Tm of L55P variant transthyretin [4] [°C] | ligand bound per mole of transthyretin for complete stabilization [5]
1 | N[C@@H](Cc1cc(I)c(Oc2cc(I)c(O)c(I)c2)c(I)c1)C(=O)O [T4, 3,5,3′,5′-Tetraiodo-L-Thyronine, reference compound] | 25 per cent of control with DMSO alone | 1.2 per cent of control with DMSO alone | 55 per cent of control with DMSO alone | 22 per cent of control with DMSO alone | 60 | – | – | – | – | –
2 | O=C(O)c1ccc2nc(-c3cc(Cl)cc(Cl)c3)oc2c1 [Fx-1006A, 2-(3,5-dichlorophenyl)benzo oxazole-6-carboxylic acid, reference compound] | 12.5 per cent of control with DMSO alone | 1.14 per cent of control with DMSO alone | 32 per cent of control with DMSO alone | 16.8 per cent of control with DMSO alone | – | 104.9 | 4.6 | 98.3 | 3.7 | two moles
